The values below come from US10081628B2, “Apoptosis-inducing agents for the treatment of cancer and immune and autoimmune diseases” (AbbVie Inc., priority 2013, dated 2018).

Assay [1] deals with lymphocytes. The assay can be described thus: Lymphocyte reduction in C57BL/6 mice. It is filed as in vivo. Conditions: Mus musculus, ip. The method, then: An experiment was performed to evaluate the effect of Bcl-2 selective/Bcl-xL sparing compounds on immune cells and platelets, as evaluated in C57Bl/6 mice. Mice were treated four days with compounds (doses of 30 mg/kg, administered by intraperitoneal injection every day) and cell numbers were measured with a Cell Dyn hematology analyzer 24 hours after the first and last doses. Exposure of the compound (area under the curve) was calculated by using time points of 1, 6, 10 and 24 hours after the last dose.

Assay [2] concerns RS4;11 cells. Put plainly: RS4;11 cell viability assay (CellTiter Glo). The format is cell-based. The settings on record: 10% human serum, 48 hours. The source says: The acute lymphoblastic leukemia (ALL) cell line RS4;11 was used as the primary human cell line to assess the cellular activity of Bcl-2 selective agents in vitro and their efficacy in vivo. Previous studies have shown by BH3 profiling, a mitochondrial assay that classifies blocks in the intrinsic apoptotic pathway, that RS4;11 cells were highly dependant on BCL-2 for survival and sensitive to the Bcl-2 family member inhibitor ABT-737 (Blood, 2008, Vol. 111, 2300-2309).
RS4;11 cells were cultured in RPMI-1640 supplemented with 2 mM L-glutamine, 10% FBS, 1 mM sodium pyruvate, 2 mM HEPES, 1% penicillin/streptomycin (Invitrogen), 4.5 g/L glucose and maintained at 37 C containing 5% CO2. To test for the cellular activity of compounds in vitro, cells were treated at 50,000 cells per well in 96-well microtiter plates in the presence of 10% human serum for 48 hours in a humidified chamber with 5% CO2. Cell cytotoxicity EC50 values were assessed using CellTiter Glo (Promega) according to the manufacturer's recommendations. The EC50 values were determined as a percentage of viable cells following treatment compared to the untreated control cells.
In general terms: Cellular ATP, detected with luciferase, serves as a proxy for viable cell number.

Setting [3] is: 30 mg/kg intraperitoneal every day for four days, 24 hours after the last dose, read-out: Lymphocyte reduction % inh. day 4.
The mark [4] stands for this setting: 30 mg/kg intraperitoneal every day, 24 hours after the first dose, read-out: Lymphocyte reduction % inh. day 1.

One may read the EC50 as the concentration that produces a half-maximal response. Low values mean higher potency in that assay, high ones lower potency in that assay.

Where two headings read alike, the source gives them in different places. A value given as a limit tells only on which side of the number the result lay.

Take `C[C@H](Nc1ccc(S(=O)(=O)NC(=O)c2ccc(N3CCN(CC4=C(c5ccc(Cl)cc5)CC(C)(C)CC4)CC3)cc2Oc2cnc3[nH]ccc3c2)cc1[N+](=O)[O-])C1CCOCC1` [Example 2, 4-(4-{[2-(4-chlorophenyl)-4,4-dimethylcyclohex-1-en-1-yl]methyl}piperazin-1-yl)-N-[(3-nitro-4-{[(1S)-1-(tetrahydro-2H-pyran-4-yl)ethyl]amino}phenyl)sulfonyl]-2-(1H-pyrrolo[2,3-b]pyridin-5-yloxy)benzamide]: the inhibition at 30 mg/kg in assay [1] (setting [3]) and in assay [1] (setting [4]) was under 15% in each case. For the same molecule, it took 160 nM to reach a half-maximal effect in assay [2] (EC50).

Take `CCC1(CNc2ccc(S(=O)(=O)NC(=O)c3ccc(N4CCN(CC5=C(c6ccc(Cl)cc6)CC(C)(C)CC5)CC4)cc3Oc3cnc4[nH]ccc4c3)cc2[N+](=O)[O-])CCOCC1` [Example 50, 4-(4-{[2-(4-chlorophenyl)-4,4-dimethylcyclohex-1-en-1-yl]methyl}piperazin-1-yl)-N-[(4-{[(4-ethyltetrahydro-2H-pyran-4-yl)methyl]amino}-3-nitrophenyl)sulfonyl]-2-(1H-pyrrolo[2,3-b]pyridin-5-yloxy)benzamide]: the EC50 in assay [2] amounted to 52 nM.

With `CC1(C)CCC(CN2CCN(c3ccc(C(=O)NS(=O)(=O)c4ccc(NCC5CCOCC5)c([N+](=O)[O-])c4)c(Oc4cnc5[nH]ccc5c4)c3)CC2)=C(c2ccc(Cl)cc2F)C1` [Example 48, 4-(4-{[2-(4-chloro-2-fluorophenyl)-4,4-dimethylcyclohex-1-en-1-yl]methyl}piperazin-1-yl)-N-({3-nitro-4-[(tetrahydro-2H-pyran-4-ylmethyl)amino]phenyl}sulfonyl)-2-(1H-pyrrolo[2,3-b]pyridin-5-yloxy)benzamide], the figures for the inhibition at 30 mg/kg in assay [1] (setting [3]) and in assay [1] (setting [4]) were 78% and 76%, respectively. In assay [2], a half-maximal response (EC50) required 3.3 nM. In assay [2], `COC(=O)C1(CNc2ccc(S(=O)(=O)NC(=O)c3ccc(N4CCN(CC5=C(c6ccc(Cl)cc6)CC(C)(C)CC5)CC4)cc3Oc3cnc4[nH]ccc4c3)cc2[N+](=O)[O-])CCOCC1` [Example 17, methyl 4-{[(4-{[4-(4-{[2-(4-chlorophenyl)-4,4-dimethylcyclohex-1-en-1-yl]methyl}piperazin-1-yl)-2-(1H-pyrrolo[2,3-b]pyridin-5-yloxy)benzoyl]sulfamoyl}-2-nitrophenyl)amino]methyl}tetrahydro-2H-pyran-4-carboxylate] registered an EC50 of 85 nM.

Molecule `CC1(C)CCC(CN2CCN(c3ccc(C(=O)NS(=O)(=O)c4ccc(NCC5CCOCC5)c([N+](=O)[O-])c4)c(Oc4cnc5[nH]ccc5c4)c3)CC2)=C(c2ccc(Cl)c(F)c2)C1` [Example 49, 4-(4-{[2-(4-chloro-3-fluorophenyl)-4,4-dimethylcyclohex-1-en-1-yl]methyl}piperazin-1-yl)-N-({3-nitro-4-[(tetrahydro-2H-pyran-4-ylmethyl)amino]phenyl}sulfonyl)-2-(1H-pyrrolo[2,3-b]pyridin-5-yloxy)benzamide] showed a half-maximal effective concentration (EC50) in assay [2] of 46 nM. On to `CC1(C)CCC(CN2CCN(c3ccc(C(=O)NS(=O)(=O)c4ccc(NCC5CCC6(CC5)OCCO6)c([N+](=O)[O-])c4)c(Oc4cnc5[nH]ccc5c4)c3)CC2)=C(c2ccc(Cl)cc2)C1` [Example 7, 4-(4-{[2-(4-chlorophenyl)-4,4-dimethylcyclohex-1-en-1-yl]methyl}piperazin-1-yl)-N-({4-[(1,4-dioxaspiro[4.5]dec-8-ylmethyl)amino]-3-nitrophenyl}sulfonyl)-2-(1H-pyrrolo[2,3-b]pyridin-5-yloxy)benzamide], for which the inhibition at 30 mg/kg in assay [1] (setting [3]) was found to be 55%; in assay [1] (setting [4]), 64%. In addition, the EC50 in assay [2] stood at 6.8 nM. Molecule `CC1(C)CCC(CN2CCN(c3ccc(C(=O)NS(=O)(=O)c4ccc(NCC5CCOCC5)c([N+](=O)[O-])c4)c(Oc4cnc5[nH]ccc5c4)c3)CC2)=C(c2ccc(C(F)F)cc2)C1` [Example 54, 4-[4-({2-[4-(difluoromethyl)phenyl]-4,4-dimethylcyclohex-1-en-1-yl}methyl)piperazin-1-yl]-N-({3-nitro-4-[(tetrahydro-2H-pyran-4-ylmethyl)amino]phenyl}sulfonyl)-2-(1H-pyrrolo[2,3-b]pyridin-5-yloxy)benzamide] showed an EC50 in assay [2] of 9.9 nM.

In turn, `CC1(C)CCC(CN2CCN(c3ccc(C(=O)NS(=O)(=O)c4ccc(NC56CC7CC(CC(O)(C7)C5)C6)c([N+](=O)[O-])c4)c(Oc4cnc5[nH]ccc5c4)c3)CC2)=C(c2ccc(Cl)cc2)C1` [Example 13, 4-(4-{[2-(4-chlorophenyl)-4,4-dimethylcyclohex-1-en-1-yl]methyl}piperazin-1-yl)-N-({4-[(3-hydroxytricyclo[3.3.1.1^3,7]dec-1-yl)amino]-3-nitrophenyl}sulfonyl)-2-(1H-pyrrolo[2,3-b]pyridin-5-yloxy)benzamide] gave an EC50 in assay [2] of 130 nM. This EC50 lies about 13-fold higher than the previous one. For the molecule `CC1(C)CCC(CN2CCN(c3ccc(C(=O)NS(=O)(=O)c4ccc(NC[C@@H]5CCCOCC5)c([N+](=O)[O-])c4)c(Oc4cnc5[nH]ccc5c4)c3)CC2)=C(c2ccc(Cl)cc2)C1` [Example 19, 4-(4-{[2-(4-chlorophenyl)-4,4-dimethylcyclohex-1-en-1-yl]methyl}piperazin-1-yl)-N-[(3-nitro-4-{[(4R)-oxepan-4-ylmethyl]amino}phenyl)sulfonyl]-2-(1H-pyrrolo[2,3-b]pyridin-5-yloxy)benzamide], the inhibition at 30 mg/kg in assay [1] (setting [3]) is 45%; in assay [1] (setting [4]), 49%. For the same molecule, the half-maximal effective concentration (EC50) in assay [2] was determined as 14 nM. Take `CC1(C)CCC(CN2CCN(c3ccc(C(=O)NS(=O)(=O)c4ccc(NCC5CCOCC5)c([N+](=O)[O-])c4)c(Oc4cnc5[nH]ccc5c4)c3)CC2)=C(c2ccc(C3CC3)cc2)C1` [Example 52, 4-(4-{[2-(4-cyclopropylphenyl)-4,4-dimethylcyclohex-1-en-1-yl]methyl}piperazin-1-yl)-N-({3-nitro-4-[(tetrahydro-2H-pyran-4-ylmethyl)amino]phenyl}sulfonyl)-2-(1H-pyrrolo[2,3-b]pyridin-5-yloxy)benzamide]: the values for the inhibition at 30 mg/kg in assay [1] (setting [3]) and in assay [1] (setting [4]) were 51% and 54%, respectively. Besides, in assay [2], the EC50 was 16 nM. In the case of `CC1(C)CCC(CN2CCN(c3ccc(C(=O)NS(=O)(=O)c4ccc(NCC5(F)COCCOC5)c([N+](=O)[O-])c4)c(Oc4cnc5[nH]ccc5c4)c3)CC2)=C(c2ccc(Cl)cc2)C1` [Example 39, 4-(4-{[2-(4-chlorophenyl)-4,4-dimethylcyclohex-1-en-1-yl]methyl}piperazin-1-yl)-N-[(4-{[(6-fluoro-1,4-dioxepan-6-yl)methyl]amino}-3-nitrophenyl)sulfonyl]-2-(1H-pyrrolo[2,3-b]pyridin-5-yloxy)benzamide], the EC50 in assay [2] is 40 nM. This counts as double-digit nanomolar.
